# Measurements from the supplement of paper PMC11208160.
# Test: recombinant barcode read abundance after kanamycin selection (control-corrected) (log10(CPM+1)); higher = more efficient recombination; sequences stand for … in AGTGCAGAGAAAATCGGCCAGTTTTCTCTGCCTGCAGTCCGCATGCCGT…AGATTTATGCAGCGGACTGCCTTTCTCCCAAAGTGATAAACCGGACAGTATCATGGACCGGTTTTCCCGGTAATCCGTATTTGCAAGGTTGGTTTCACT; site = the 11-nt target
# Description: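 Pooled E. coli target-specificity screen for the IS621 bridge recombinase. Each library plasmid pairs an 11-nt target (CT core) with a bridge RNA whose target-binding loop (9-nt LTG + 4-nt RTG) is reprogrammed; the rest of the 177-nt WT IS621 bridge RNA scaffold is fixed. The plasmid is co-electroporated with a WT donor plasmid; recombinase is induced with 0.1 mM IPTG and recombinants are selected on kanamycin. Recombinant barcodes are sequenced, converted to CPM, averaged over two biological replicates and corrected by the unselected control CPM. Molecule = full bridge RNA written as DNA: LTG = specificity nt 1-9, RTG = reverse complement of specificity nt 8-11, in the WT scaffold.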
# 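Further: IS621 recombinase and bridge RNA in Escherichia coli cells.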
row,Sequence,recombinant barcode read abundance (log10)
1,ACTGATGCTTGGGTTCTAACCTGTTGCCT (site ACTGATGCTAG),2.09
2,ACTGATGCTTGGGTTCTAACCTGTTGCCT (site ACTGATTCTAG),0.0409
3,ACTGTATCTTGGGTTCTAACCTGTTGCCT (site ACTGTATCTAG),1.13
4,ACTGTATCTTGGGTTCTAACCTGTTGCCT (site CCTGTATCTAG),0.134
5,ACTGTATCTTGGGTTCTAACCTGTTGCCT (site GCTGTATCTAG),0.0734
6,ACTGTATCTTGGGTTCTAACCTGTTGCCT (site TCTGTATCTAG),0.231
7,ACTGTCACTTGGGTTCTAACCTGTTGCCT (site ACTGTCACTAG),2.36
8,ACTGTCACTTGGGTTCTAACCTGTTGCCT (site ACTGTGACTAG),0.0913
9,ACTGTGACTTGGGTTCTAACCTGTTGCCT (site ACTGTCACTAG),0.317
10,ACTGTGACTTGGGTTCTAACCTGTTGCCT (site ACTGTGACTAG),2.71
11,ACTTAGACTTGGGTTCTAACCTGTTGCCC (site ACTTAGACTAG),0.424
12,ACTTAGACTTGGGTTCTAACCTGTTGCCC (site ACTTAGACTCG),0.333
13,ACTTAGACTTGGGTTCTAACCTGTTGCCC (site ACTTAGACTGG),1.46
14,ACTTAGACTTGGGTTCTAACCTGTTGCCC (site ACTTAGACTTG),0
15,ACTTAGTCTTGGGTTCTAACCTGTTGCTC (site ACTTAGTCTGA),1.04
16,ACTTAGTCTTGGGTTCTAACCTGTTGCTC (site TGCCCCGCTAG),0.0305
17,ACTTCAACTTGGGTTCTAACCTGTTGCCT (site ACATCAACTAG),0.0253
18,ACTTCAACTTGGGTTCTAACCTGTTGCCT (site ACCTCAACTAG),0.026

row,Sequence,recombinant barcode read abundance (log10)
1,ACTTCAACTTGGGTTCTAACCTGTTGCCT (site ACGTCAACTAG),0.161
2,ACTTCAACTTGGGTTCTAACCTGTTGCCT (site ACTTCAACTAG),0.101
3,ACTTCACCTTGGGTTCTAACCTGTTGCCT (site ACTTCACCTAG),1.02
4,ACTTCACCTTGGGTTCTAACCTGTTGCCT (site ACTTCTGCTAG),0.0689
5,ACTTCTACTTGGGTTCTAACCTGTTGCCG (site ACTTCTACTCG),0.195
6,ACTTCTACTTGGGTTCTAACCTGTTGCCG (site ACTTCTTCTAG),0.204
7,ACTTGACCTTGGGTTCTAACCTGTTGCGG (site ACTTGACCTCC),2.31
8,ACTTGACCTTGGGTTCTAACCTGTTGCGG (site AGTTAACCTCC),0
9,ACTTGCCCTTGGGTTCTAACCTGTTGCCT (site AATTGCCCTAG),0.0465
10,ACTTGCCCTTGGGTTCTAACCTGTTGCCT (site ACTTGCCCTAG),0.925
11,ACTTGCCCTTGGGTTCTAACCTGTTGCCT (site AGTTGCCCTAG),0.00674
12,ACTTGCCCTTGGGTTCTAACCTGTTGCCT (site ATTTGCCCTAG),0.57
13,ACTTTGTCTTGGGTTCTAACCTGTTGCCT (site ACATTGTCTAG),0.0289
14,ACTTTGTCTTGGGTTCTAACCTGTTGCCT (site ACCTTGTCTAG),0.085
15,ACTTTGTCTTGGGTTCTAACCTGTTGCCT (site ACGTTGTCTAG),0.0449
16,ACTTTGTCTTGGGTTCTAACCTGTTGCCT (site ACTTTGTCTAG),0.596
17,AGAAACACTTGGGTTCTAACCTGTTGCCT (site AGAAACACTAG),1.34
18,AGAAACACTTGGGTTCTAACCTGTTGCCT (site AGGAACACTAG),0.0546
